Reference: ChEMBL document CHEMBL2396630, “Backbone cyclic helix mimetic of chemokine (C-C motif) receptor 2: a rational approach for inhibiting dimerization of G protein-coupled receptors” (Bioorg Med Chem, 2013)
Active and inactive are the calls of the source. The rule behind the calls is not given here. Numbered stars: 1 amine (or outer) side, 2 acyl side, 3 side chain; on linkers, the order of the positions; unused ones are H or OH. Bridge positions count the residues as written; N and C are the ends. Square brackets hold non-standard residues; d marks the D form. Peptide text beside a SMILES is read from it. N(2-Aminoethyl)Gly = O=C(CN(CCN[*:3])[*:1])[*:2]; CO = O=C([*:1])[*:2]; Nlys = NCCCCNCC(=O)O

Assays:
Format in all cases: cell-based
[1] = target: C-C chemokine receptor type 2 (Homo sapiens) (UniProt P41597); experiment: Binding affinity to CCR2 in human THP1 cells assessed as inhibition of MCP1-mediated monocyte migration at 10 uM after 30 mins by Transwell assay relative to untreated control; conditions: THP-1
C-C chemokine receptor type 2 (Homo sapiens), sequence (P41597 whole entry, looked up): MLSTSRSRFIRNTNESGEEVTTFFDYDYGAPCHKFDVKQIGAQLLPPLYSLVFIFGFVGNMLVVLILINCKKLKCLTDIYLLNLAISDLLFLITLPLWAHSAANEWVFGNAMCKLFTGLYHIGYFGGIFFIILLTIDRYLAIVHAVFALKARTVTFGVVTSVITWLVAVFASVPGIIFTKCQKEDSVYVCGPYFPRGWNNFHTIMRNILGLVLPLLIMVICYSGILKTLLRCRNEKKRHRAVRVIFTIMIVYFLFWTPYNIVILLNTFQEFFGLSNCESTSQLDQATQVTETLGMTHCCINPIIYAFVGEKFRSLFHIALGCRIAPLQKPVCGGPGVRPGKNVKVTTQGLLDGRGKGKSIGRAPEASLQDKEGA

[2] = target: C-C chemokine receptor type 2 (Homo sapiens) (UniProt P41597); experiment: Binding affinity to CCR2 in human THP1 cells assessed as inhibition of MCP1-mediated monocyte migration after 30 mins by Transwell assay relative to untreated control; conditions: THP-1
[3] = target: C-C chemokine receptor type 2 (Homo sapiens) (UniProt P41597); experiment: Binding affinity to CCR2 in human THP1 cells assessed as inhibition of SDF1-mediated monocyte migration after 30 mins by Transwell assay; conditions: THP-1
[4] = target: C-C chemokine receptor type 2 (Homo sapiens) (UniProt P41597); experiment: Binding affinity to CCR2 in human THP1 cells assessed as inhibition of monocyte migration after 30 mins by Transwell assay; conditions: THP-1
THP-1 = experiment: Cytotoxicity against human THP1 cells assessed as cell death

Compound | inhibition [1] | inhibition [2] | also measured
CC[C@H](C)[C@H](NC(=O)[C@H](CC(C)C)NC(=O)[C@@H](N)C(C)C)C(=O)N[C@@H](CC(C)C)C(=O)O (H-VLIL-OH) | inactive | – | –
CC[C@H](C)[C@H](NC(=O)CN1CCCCNC(=O)NCCN(C(=O)[C@@H](N)CCSC)CC(=O)N[C@@H](C(C)C)C(=O)N[C@@H](C(C)C)C1=O)C(=O)N[C@@H](CC(C)C)C(N)=O (H-M[N(2-Aminoethyl)Gly]VV[Nlys]IL-NH2; linker 2-5 via CO) | – | inactive | –
CC[C@H](C)[C@@H]1NC(=O)[C@H](CC(C)C)NC(=O)CN(C(=O)[C@@H](NC(=O)[C@H](CC(C)C)NC(=O)[C@@H](N)CCSC)C(C)C)CCNC(=O)NCCCCN(CC(N)=O)C1=O (H-MLV[N(2-Aminoethyl)Gly]LI[Nlys]-NH2; linker 4-7 via CO) | – | Active | inhibition [3]: inactive; inhibition [4]: inactive; Activity (THP-1): Non-toxic

Continued, in another order:

inhibition [1] | inhibition [2] | Compound | also measured
Active | – | H-MLVVLIL-OH | –
inactive | – | H-LVVLIL-OH | –
– | inactive | CC[C@H](C)[C@H](NC(=O)[C@H](CC(C)C)NC(=O)[C@@H](NC(=O)CN1CCCCNC(=O)NCCNCC(=O)N[C@@H](CCSC)C(=O)N[C@@H](CC(C)C)C1=O)C(C)C)C(=O)N[C@@H](CC(C)C)C(N)=O (H-[N(2-Aminoethyl)Gly]ML[Nlys]VLIL-NH2; linker 1-4 via CO) | –
– | inactive | CC[C@H](C)[C@H](NC(=O)[C@H](CC(C)C)NC(=O)CN1CCCCNC(=O)NCCNCC(=O)N[C@@H](CC(C)C)C(=O)N[C@@H](C(C)C)C1=O)C(=O)N[C@@H](CC(C)C)C(N)=O (H-[N(2-Aminoethyl)Gly]LV[Nlys]LIL-NH2; linker 1-4 via CO) | –
inactive | – | H-VVLIL-OH | –
